Experimental data: patent US20220204577A1, “Synthetic Peptides With Affinity for the Interleukin-10 Receptor, Pharmaceutical Composition and Use Thereof as Immunomodulators for Treating Autoimmune, Inflammatory or Allergic Diseases” (Universidade Federal de Uberlândia, priority 2019, published 2022)

Experiments:
[1] = tested on: Dendritic cells from mice bone marrow; experiment: Co-stimulatory molecules on bone marrow dendritic cells; assay type: cell-based; conditions: CD11c+ dendritic cells; 1 μM; 24 hours
Experimental: Dendritic cells from mice bone marrow were isolated to analyze the effect of synthesized peptides Pep 1, Pep 2, Pep 3, and Pep 4 at two concentrations, 1 μM, and 10 μM, on reducing cell activation. […] In the assays, CD11c+CD86 cells (FIG. 8A) and CD11c+CD40+ cells (FIG. 8B) were used after 24 hours of treatment. LPS (100 ng/mL) was used as a positive control. * P<0.05; ** P<0.005.

[2] = tested on: NFκB; experiment: NFkB expression in Jurkart-Dual reporter cells, TNF-α pre-treatment then peptides; assay type: cell-based
Experimental: Then another assay was performed in which the cells were pretreated with TNF-α and the peptides were added later. […] In the assays shown in FIGS. 4 A, B, and C the analysis of NFkB expression was performed in Jurkart-Dual reporter cells. Cells were treated with TNF-α (200 ng/ml) for 1 hour and the peptides were added. Luciferase was measured after 12 hours of treatment (FIG. 4A), 24 hours of treatment (FIG. 4B), and 48 hours of treatment (FIG. 4C). TNF-α (200 ng/mL) was used as a positive control and rIL-10 (Recombinant Interleukin-10) (0.4 ng/mL) as a negative control. * P<0.05; ** P<0.005; *** P<0.0005.

[3] = tested on: NFκB, IFN, or TLR4 signaling pathways; experiment: Reporter cell lines treated with peptides alone (no activating molecule); assay type: cell-based; conditions: various concentrations, 12, 24 and 48 hours
Experimental: To investigate the ability of the peptides to interfere with the NFkB, IFN, and TLR4 pathways, reporter cell lines were used. To analyze whether the isolated peptides (without activation molecules) could induce any type of activation, the isolated peptides were tested in the cell lines during 12, 24, and 48 hours of treatment. […] As an example, FIGS. 2A, 2B, and 2C show an analysis of NFkB expression after stimulation with the synthesized peptides described in this report. The cells were treated with the synthesized peptides Pep 1, Pep 2, Pep 3, and Pep 4 at various concentrations for 12, 24, and 48 hours, without activating molecules. Luciferase was then measured after 12 hours of treatment (FIG. 2A), 24 hours of treatment (FIG. 2B), and 48 hours of treatment (FIG. 2C). […] TNF-α (200 ng/mL) was used as a positive control.

[4] = tested on: TLR4 signaling pathway; experiment: TLR4 signaling pathway (SEAP) in HEK cells, peptide pre-treatment then LPS; assay type: cell-based; conditions: 12 hours
Experimental: (§1) HEK cells were used to investigate the ability of the peptides to reduce activation of the TLR4 signaling pathway after 12 hours of treatment.
(§2) In the assay shown in FIG. 7A, the cells were treated with peptides for 1 hour, then LPS (100 ng/ml) was added. SEAP production was measured after 12 hours of treatment. In the assay shown in FIG. 7B, the cells were treated with LPS (100 ng/ml) for 1 hour, then the peptides were added. SEAP production was measured after 12 hours of treatment. LPS (100 ng/mL) was used as positive control and IL-10 (0.4 ng/mL) as negative control. * P<0.05; ** P<0.005; *** P<0.0005.

[5] = tested on: TLR4 signaling pathway; experiment: TLR4 signaling pathway (SEAP) in HEK cells, LPS pre-treatment then peptides; assay type: cell-based; conditions: 12 hours
Experimental: as §1, §2

[6] = tested on: NFκB; experiment: NFkB expression in Jurkart-Dual reporter cells, peptide pre-treatment then TNF-α; assay type: cell-based; conditions: peptide then TNF-α
Experimental: The assay was then performed using TNF-α as the activating molecule not only in the control, but after a pre-treatment with the synthesized peptides Pep 1, Pep 2, Pep 3, and Pep 4 at various concentrations. […] In the assays shown in FIGS. 3 A, B, and C, NFkB expression analysis was performed in Jurkart-Dual reporter cells. Cells were treated with peptides for 1 hour and TNF-α (200 ng/ml) was added. Luciferase was measured after 12 hours of treatment (FIG. 3A), 24 hours of treatment (FIG. 3B), and 48 hours of treatment (FIG. 3C).

[7] = Dynamic Light Scattering (DLS), aggregation behavior in solution; assay type: physicochemical
Experimental: The aggregation behavior of peptides Pep 1, Pep 2, Pep 3, and Pep 4 in solution was determined by Dynamic Light Scattering (DLS), as shown in FIG. 1E. All synthetic peptides were approximately 100% monomeric in solution. The measured hydrodynamic radius of the peptides was similar for Pep 1 (0.82 nm), Pep 2 ([…]), Pep 3 (0.79 nm), and Pep 4 (0.86 nm).

[8] = tested on: IFN signaling pathway; experiment: IFN signaling pathway (SEAP) in Jurkart-Dual reporter cells, peptide pre-treatment then IFN-α; assay type: cell-based; conditions: peptide then IFN-α, 48 hours
Experimental: Therefore, we cannot confirm whether they were able to affect the activation pathway (FIGS. 6A, B, and C) in the same or better way than the negative control (rIL-10). In the assays shown in FIGS. 5 (A, B, and C) and 6 (A, B, and C), IFN expression was analyzed in Jurkart-Dual reporter cells. In the assays shown in FIGS. 5 A, B, and C, cells were treated with peptides for 1 hour followed by the addition of IFN-α (104 EU/ml). Secreted Embryonic Alkaline Phosphatase (SEAP) production was measured after 12 hours of treatment (FIG. 5A), 24 hours of treatment (FIG. 5B), and 48 hours of treatment (FIG. 5C). In the assays shown in FIGS. 6 A, B, and C, cells were treated with IFN-α (104 EU/ml) for 1 hour, and then peptides were added. SEAP production was measured after (D) 12 hours of treatment (E) 24 hours of treatment, and (F) 48 hours of treatment. IFN-α (104 EU/mL) was used as a positive control and rIL-10 (0.4 ng/mL) as a negative control. * P<0.05.

[9] = peptide 1 hour, then LPS 100 ng/ml, 100 μM
[10] = LPS 100 ng/ml 1 hour, then peptide, 100 μM

In the case of “Pep 2: synthetic peptide with affinity to the Interleukin-10 receptor, SEQ ID No 02, without disulfide bridges (HASSAVIKSSSGGGS; INTERLEUKIN-10 MIMETIC PEPTIDE)”, the “expression of CD40+” value [1] is reported as “decreased the expression of CD86+ and CD40+”, the “expression of CD86+” value [1] is reported as “decreased the expression of CD86+ and CD40+” and the NFκB signaling ([2]; TNF-α 200 ng/ml 1 hour, then peptide, 100 μM, 12 hours) is reported as “able to decrease NFκB signaling”. The NFκB signaling ([2]; TNF-α then peptide, 0.5 μM, 24 hours) was “less activation of the analyzed signaling pathway”, the NFκB signaling ([2]; TNF-α then peptide, 1 μM, 12 hours) was “able to decrease NFκB signaling” and the NFκB signaling ([2]; TNF-α then peptide, 1 μM, 24 hours) was “less activation of the analyzed signaling pathway”. For the same substance, the NFκB signaling ([2]; TNF-α then peptide, 5 μM, 12 hours) was “able to decrease NFκB signaling”, the NFκB signaling ([2]; TNF-α then peptide, 5 μM, 24 hours) was “less activation of the analyzed signaling pathway” and the NFκB signaling ([2]; TNF-α then peptide, 10 μM, 12 hours) was “able to decrease NFκB signaling”. The NFκB signaling ([2]; TNF-α then peptide, 100 μM, 24 hours) was “less activation of the analyzed signaling pathway”, the “NFkB expression (luciferase)” value [3] was “unable to elicit any response” and the TLR4 pathway activation [4, 9] was “significantly reduced pathway activation”. The TLR4 pathway activation ([4]; peptide then LPS, 0.1 μM) was “significantly reduced pathway activation”, the “activation of the TLR4 pathway” value [5, 10] was “activation of the TLR4 pathway was more significantly reduced” and the “activation of the TLR4 pathway” value ([5]; LPS then peptide, 0.01 μM) was “activation of the TLR4 pathway was more significantly reduced”. The “activation of the TLR4 pathway” value ([5]; LPS then peptide, 0.05 μM) was “activation of the TLR4 pathway was more significantly reduced”, the “activation of the TLR4 pathway” value ([5]; LPS then peptide, 0.1 μM) was “activation of the TLR4 pathway was more significantly reduced” and the “activation of the TLR4 pathway” value ([5]; LPS then peptide, 0.5 μM) was “activation of the TLR4 pathway was more significantly reduced”. For the same substance, the “activation of the TLR4 pathway” value ([5]; LPS then peptide, 1 μM) was “activation of the TLR4 pathway was more significantly reduced”, the NFκB activation ([6]; 0.1 μM, 12, 24 and 48 hours) was “decreased NFκB activation” and the NFκB activation ([6]; 0.5 μM, 12, 24 and 48 hours) was “decreased NFκB activation”. For the same substance, the NFκB activation ([6]; 1 μM, 12, 24 and 48 hours) was “decreased NFκB activation”, the NFκB activation ([6]; 5 μM, 12, 24 and 48 hours) was “decreased NFκB activation” and the NFκB activation ([6]; 10 μM, 12, 24 and 48 hours) was “decreased NFκB activation”. The NFκB activation ([6]; 100 μM, 12, 24 and 48 hours) was “decreased NFκB activation”.

With “Pep 4: synthetic peptide with affinity to the Interleukin-10 receptor, SEQ ID No 04, linear chain (HCMTGSRATFPSAPGGGS; INTERLEUKIN-10 MIMETIC PEPTIDE)” the hydrodynamic radius [7] was 0.86 nm, the NFκB signaling ([2]; TNF-α then peptide, 0.5 μM, 12 hours) was “able to decrease NFκB signaling” and the “NFkB expression (luciferase)” value [3] was “unable to elicit any response”. For the same substance, the TLR4 pathway activation [4, 9] was “significantly reduced pathway activation”, the TLR4 pathway activation ([4]; peptide then LPS, 1 μM) was “significantly reduced pathway activation” and the TLR4 pathway activation ([4]; peptide then LPS, 5 μM) was “significantly reduced pathway activation”. The TLR4 pathway activation ([4]; peptide then LPS, 10 μM) was “significantly reduced pathway activation”, the “activation of the TLR4 pathway” value [5, 10] was “activation of the TLR4 pathway was more significantly reduced” and the “activation of the TLR4 pathway” value ([5]; LPS then peptide, 0.5 μM) was “activation of the TLR4 pathway was more significantly reduced”. For the same substance, the “activation of the TLR4 pathway” value ([5]; LPS then peptide, 1 μM) was “activation of the TLR4 pathway was more significantly reduced”, the “activation of the TLR4 pathway” value ([5]; LPS then peptide, 5 μM) was “activation of the TLR4 pathway was more significantly reduced” and the “activation of the TLR4 pathway” value ([5]; LPS then peptide, 10 μM) was “activation of the TLR4 pathway was more significantly reduced”. The NFκB activation ([6]; 0.005 μM, 48 hours) was “reduced pathway activation”, the NFκB activation ([6]; 0.01 μM, 48 hours) was “reduced pathway activation” and the NFκB activation ([6]; 0.05 μM, 48 hours) was “reduced pathway activation”. For the same substance, the “activation of the IFN signaling pathway” value ([8]; 0.05 μM) was “activation of the pathway was reduced” and the “activation of the IFN signaling pathway” value ([8]; 100 μM) was “activation of the pathway was reduced”.

With “Pep 3: synthetic peptide with affinity to the Interleukin-10 receptor, SEQ ID No 03, linear chain (HCFDTQRMEFRMPPGGGS; INTERLEUKIN-10 MIMETIC PEPTIDE)” the hydrodynamic radius [7] was 0.79 nm, the NFκB signaling ([2]; TNF-α then peptide, 0.001 μM, 24 hours) was “less activation of the analyzed signaling pathway” and the NFκB signaling ([2]; TNF-α then peptide, 0.005 μM, 12 hours) was “able to decrease NFκB signaling”. The NFκB signaling ([2]; TNF-α then peptide, 0.005 μM, 24 hours) was “less activation of the analyzed signaling pathway”, the NFκB signaling ([2]; TNF-α then peptide, 10 μM, 24 hours) was “less activation of the analyzed signaling pathway” and the “NFkB expression (luciferase)” value [3] was “unable to elicit any response”. The TLR4 pathway activation [4, 9] was “significantly reduced pathway activation”, the “activation of the TLR4 pathway” value [5, 10] was “activation of the TLR4 pathway was more significantly reduced” and the “activation of the TLR4 pathway” value ([5]; LPS then peptide, 0.1 μM) was “activation of the TLR4 pathway was more significantly reduced”. The “activation of the TLR4 pathway” value ([5]; LPS then peptide, 0.5 μM) was “activation of the TLR4 pathway was more significantly reduced”, the “activation of the TLR4 pathway” value ([5]; LPS then peptide, 10 μM) was “activation of the TLR4 pathway was more significantly reduced” and the NFκB activation ([6]; 0.01 μM, 48 hours) was “reducing pathway activation”. For the same substance, the NFκB activation ([6]; 0.05 μM, 12 hours) was “reducing pathway activation” and the “activation of the IFN signaling pathway” value ([8]; 100 μM) was “activation of the pathway was reduced”.
